# Tests used:
# myogenin = test: Examination 4: myogenin gene expression in superficial pectoral muscle at 3 days old; type: in vivo, broiler chicks; settings: 0.01% by mass additive in feed for 3 days, FIG. 3A, n=4
# Protocol: FIGS. 3A to 3C illustrate graphs showing the expression of genes related to skeletal muscle cell differentiation in superficial pectoral muscles upon administration of each feed composition in Examination 4 (n=4). […] A relative value of the expression level of each factor is expressed as an average±standard deviation of values obtained by dividing the expression levels of each factor by the expression level of RPS9. Newly hatched broiler chicks (Ross Breeders Ltd.) were tested. A control group (=additive-free group), a GSSG addition group (0.01% by mass), and a GSH addition group (0.01% by mass) each consisting of 5 males and 5 females were set and fed with a feed composition for 3 days. […] At this timing, 2 males and 2 females in each group were slaughtered to collect blood and skeletal muscles. The gene expression levels of the MyoD family (myogenin, myostatin, and Pax7) were observed. […] Statistics were analyzed using a mixed model in consideration of a gender difference and an interaction between males and females. A method for determining gene expressions of the above factors in skeletal muscles is described above. An ammonium salt was used as oxidized glutathione (GSSG). The GSSG contained 95.6% by mass of oxidized glutathione, and the content of reduced glutathione mixed therein was 0.1% by mass or less. […]
# [1] = Examination 1: body weight of initial-phase chicks fed additive-containing feed for 3 days; type: in vivo, broiler chicks of the Chunky breed (Ross 308); settings: n = 6
# Protocol: Newly hatched broiler chicks of the Chunky breed (Ross 308, Ross Breeders Ltd.) were tested. […] Blood and skeletal muscles were collected to observe gene expression levels of MyoD, myogenin, myostatin, and IGF-I (insulin-like growth factor-I). An ammonium salt was used as oxidized glutathione (GSSG). The GSSG contained 95.6% by mass of oxidized glutathione, and the content of reduced glutathione mixed therein was 0.1% by mass or less. […] The amount of GSSG used herein was determined in terms of the amount of free oxidized glutathione. In all the following Examinations, the amounts of GSSG are expressed in terms of the amount of free oxidized glutathione.
# myostatin = test: Examination 3: myostatin mRNA expression in skeletal muscle cells in differentiation medium; type: cell-based, broiler chicks (Ross 308); settings: 100 μM GSSG in differentiation medium; cells recovered 0, 12, 24 h; FIG. 2B, n=6
# Source text: FIGS. 2A to 2D illustrate graphs showing the expression levels of genes related to skeletal muscle cell differentiation upon the addition of GSSG during the skeletal muscle cell differentiation period in Examination 3 (n=6). […] A relative value of the expression level of each factor is expressed as an average±standard deviation of values obtained by dividing the expression levels of each factor by the expression level of RPS9. Each different symbol denotes a significant difference in the […] multiple comparison test (P<0.05). Oxidized glutathione (GSSG) was added to a differentiation-promoting culture medium system of skeletal muscle cells collected from newly hatched broiler chicks (Ross 308, Ross Breeders Ltd.) (under culture conditions simulating the state of skeletal muscle cells of neonatal chicks), phosphorylation of signal factors was analyzed by Western blot, and the differentiation inhibition mechanism was investigated. Expression levels of MyoD, myostatin, IGF-I, and Pax7 as genes involved in myogenesis were determined. Pax7 is a muscle satellite cell marker. […] The expression level of Pax7 was determined by the method described in Examination 1 except that the primer set used herein was a primer set listed in the table below. […] The cells were recovered 0, 12, and 24 hours later, and the expression levels of genes involved in myogenesis were determined. […]
# [2] = Examination 7: body weight at 14 days old after GSSG feed until 3, 7 or 14 days old; type: in vivo, broiler chicks; settings: n = 12
# Protocol: In each group, 6 males and 6 females were tested. […] The chicks were raised until they became 14 days old, and then, their body weights were measured. The feed composition (ME3,100 kcal/kg, CP21) free of GSSG used in Examination 1 was used for the control group. In the control group the chicks were raised until they became 14 days old and their body weights were measured. In the test groups 1 to 3, a feed composition used as an initial-phase feed composition, for which the level of GSSG to be added was set to 0.05% by mass, is a composition prepared by adding GSSG at 0.05% by mass to a composition (ME3,100 kcal/kg, CP21) containing corn, soybean meal, corn gluten meal, fat and oil, calcium carbonate (powder), tricalcium phosphate, dietary salt, DL-methionine, L-lysine chloride, choline chloride, and vitamins/minerals in accordance with the NRC requirements. […] An ammonium salt was used as GSSG. The GSSG contained 95.6% by mass of oxidized glutathione, and the content of reduced glutathione mixed therein was 0.1% by mass or less.
substance,measurement,setting,value
oxidized glutathione [GSSG],myogenin expression level vs control group,myogenin,significantly decreased
same,Weight at 3 days old,[1]; feed with 0.01% by mass GSSG for 3 days,78.1 ± 4.0 g
same,Weight at 3 days old,[1]; feed with 0.1% by mass GSSG for 3 days,72.8 ± 5.6 g
same,mRNA expression level of myostatin vs control,myostatin,significant decrease
same,14-day-old weight,[2]; 0.05% by mass GSSG feed until 3 days old,393 ± 17 g
same,14-day-old weight,[2]; 0.05% by mass GSSG feed until 7 days old,391 ± 24 g
same,14-day-old weight,[2]; 0.05% by mass GSSG feed until 14 days old,351 ± 47 g

# — patent US20180271930A1, “METHOD FOR RAISING POULTRY” (priority 2015, published 2018)
